Experimental data: the NIST ThermoML archive (doi:10.1021/je400373d)
Numbers after ± are expanded uncertainties.

Columns and labels:
[1] = Liquid, Ebulliometric method (Recirculating still)
[2] = Boiling temperature at pressure P; settings: 101.33 kPa; Liquid; Ebulliometric method (Recirculating still)

OCCO [1,2-ethanediol]
[1]
Settings | vapor or sublimation pressure [kPa]
422.75 K | 20 ± 0.46
422.8 K | 20 ± 0.46
433.66 K | 30 ± 0.63
433.71 K | 30 ± 0.63
441.66 K | 40 ± 0.76
441.7 K | 40 ± 0.76
470.47 K | 101.3 ± 2

CNCCO [2-(methylamino)ethanol]
Settings | Boiling temperature at pressure P [°C]
[2] | 158.1 ± 0.2

[1]
Settings | vapor or sublimation pressure [kPa]
388 K | 20 ± 0.43
388.04 K | 20 ± 0.43
397.89 K | 30 ± 0.6
397.95 K | 30 ± 0.6
405.45 K | 40 ± 0.74
405.48 K | 40 ± 0.74
431.2 K | 101.3 ± 2

CN(CCO)CCO [N-methyldiethanolamine]
[1]
Settings | vapor or sublimation pressure [kPa]
467.34 K | 20 ± 0.5
467.4 K | 20 ± 0.5
479.37 K | 30 ± 0.69
479.4 K | 30 ± 0.69
488.14 K | 40 ± 0.82
488.17 K | 40 ± 0.82
520.28 K | 101.3 ± 2
